The record followed here is publication PMC7997574, “Lead Optimization of Benzoxazolone Carboxamides as Orally Bioavailable and CNS Penetrant Acid Ceramidase Inhibitors” (Journal of Medicinal Chemistry, 2020).

One series has as its target T1, AC (Homo sapiens, UniProt Q13510).
T1 sequence (Q13510 22-395): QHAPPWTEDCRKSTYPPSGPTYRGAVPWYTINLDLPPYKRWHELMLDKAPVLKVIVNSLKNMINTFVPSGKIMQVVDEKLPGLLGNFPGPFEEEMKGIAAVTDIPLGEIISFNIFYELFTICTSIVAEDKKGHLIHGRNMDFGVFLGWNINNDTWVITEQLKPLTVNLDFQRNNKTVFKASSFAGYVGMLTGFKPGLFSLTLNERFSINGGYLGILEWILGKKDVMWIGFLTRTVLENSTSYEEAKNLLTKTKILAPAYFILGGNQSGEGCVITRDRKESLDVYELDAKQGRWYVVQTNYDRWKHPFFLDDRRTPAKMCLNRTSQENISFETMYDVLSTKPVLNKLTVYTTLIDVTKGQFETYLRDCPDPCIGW
As to the kind of experiment: Fluorogenic hAC assay on hAC-enriched lysate of HEK293 cells. The series is classed as biochemical. Details: expressed in transfected cells. How it is done: HEK293 cells stably expressing hAC were grown in Dulbecco’s modified Eagle medium (DMEM) containing 10% FBS, 1% glutamine, 1 mM sodium pyruvate, and 500 μg mL^–1 G418. Cells were harvested, and pellets were stored at −80 °C until lysosomal-enriched lysate preparation. Cells were suspended in 20 mM Tris HCl (pH 7.5) with 0.32 M sucrose, sonicated, and centrifuged at 800 × g for 30 min at 4 °C. Supernatants were then centrifuged at 12000 × g for 30 min at 4 °C. Pellets were resuspended in PBS (pH 7.4) and subjected to three freeze–thaw cycles at −80 °C. The suspension was finally centrifuged at 105000 × g for 1 h at 4 °C, and protein concentration was measured in the supernatant with the bicinchoninic acid based protein assay. This hAC-enriched preparation allowed us to further optimize the enzymatic assay and to use small amounts of lysate (2 μg per well) at a 5 μM substrate (Rbm14–12) around its KM (KM = 5.0 μM).
The assay was performed in Optiplate 96-well black plates, with each reaction well containing a mixture of 25 mM NaOAc buffer (pH 4.5) and a fixed amount of protein (2 μg) in a volume of 85 μL. After 10 min of preincubation with test compounds (diluted 20× from DMSO stock solutions at different concentrations), the fluorogenic probe was added (diluted 40× from EtOH stock solution, final concentration 5 μM). After 3 h of incubation at 37 °C, reactions were stopped with 50 μL of MeOH and 100 μL of a 2.5 mg mL^–1 NaIO4 fresh solution in 100 mM glycine/NaOH buffer (pH 10.6). The plates were further incubated for 2 h at 37 °C in the dark, and fluorescence intensities were measured at excitation/emission wavelengths of 355/460 nm. Negative control samples consisted of the same incubation mixture in the absence of protein-enriched extracts. Data were plotted as a function of compound concentrations. IC50 values were calculated by nonlinear regression analysis using GraphPad Prism 5 (GraphPad Software Inc., CA, USA) applying a standard slope curve fitting. The reported IC50 values are the mean of at least three independent experiments performed in three technical replicates.

A short description of series [1]: In vitro microsomal stability study. The settings on record: mouse liver microsomes. It counts as in vitro ADME. How it is done: Freshly prepared 10 mM MeCN stock solution of test compound was preincubated at 37 °C for 15 min with mouse liver microsomes added in 0.1 M Tris HCl buffer (pH 7.4). The final concentration was 4.6 μM. After preincubation, the cofactors (NADPH, G6P, G6PDH, and MgCl2 predissolved in 0.1 M Tris HCl) were added to the incubation mixture, and the incubation was continued at 37 °C for 1 h. At each time point (0, 5, 15, 30, and 60 min), 30 μL of incubation mixture was diluted with 200 μL of cold MeCN spiked with 200 nM internal standard followed by centrifugation at 3300 × g for 15 min. The supernatant was further diluted with H2O (1:1) for analysis. The concentration of the test compound was quantified by LC/MS/MS on a Waters ACQUITY UPLC/MS TQD system consisting of a TQD MS equipped with an ESI interface. The analyses were run on an ACQUITY UPLC BEH C18 (50 × 2.1 mm ID, particle size 1.7 μm) with a VanGuard BEH C18 precolumn (5 × 2.1 mm ID, particle size 1.7 μm) at 40 °C. For each compound, the appropriate mobile phase was chosen. ESI was applied in positive mode. The percentage of test compound remaining at each time point relative to t = 0 was calculated. t1/2 was determined by a one-phase decay equation using a nonlinear regression of compound concentration vs time. Values are the mean of at least two independent experiments performed in two technical replicates.
A general note: Liver microsomes are a subcellular fraction often used to study metabolism.

Series [2] is described as follows: In vitro plasma stability study. It counts as in vitro ADME. The following applies: mouse plasma; read-out: m-plasma t1/2. The protocol: Freshly prepared 10 mM MeCN stock solution of test compound was diluted 50-fold with DMSO/H2O (1:1) and incubated at 37 °C for 2 h with mouse plasma added in 5% DMSO (preheated at 37 °C for 10 min). The final concentration was 2 μM. At each time point (0, 5, 15, 30, 60, and 120 min), 50 μL of incubation mixture was diluted with 200 μL of cold MeCN spiked with 200 nM internal standard followed by centrifugation at 3300 × g for 20 min. The supernatant was further diluted with H2O (1:1) for analysis. The concentration of test compound was quantified by LC/MS/MS on a Waters ACQUITY UPLC/MS TQD system consisting of a TQD MS equipped with an ESI interface. The analyses were run on an ACQUITY UPLC BEH C18 (50 × 2.1 mm ID, particle size 1.7 μm) with a VanGuard BEH C18 precolumn (5 × 2.1 mm ID, particle size 1.7 μm) at 40 °C. For each compound, the appropriate mobile phase was chosen. ESI was applied in positive mode. The response factors, calculated on the basis of the internal standard peak area, were plotted over time. When possible, response vs time profiles were fitted with Prism (GraphPad Software, Inc., USA) to estimate compound t1/2 in plasma. Values are the mean of at least two independent experiments performed in two technical replicates.

Series [3] can be described thus: Aqueous kinetic solubility assay. The series is classed as physicochemical. The following applies: PBS, pH 7.4. The protocol: The aqueous kinetic solubility was determined from a 10 mM MeCN stock solution of test compound in Phosphate-Buffered Saline (PBS) at pH 7.4. The study was performed by incubation of an aliquot of 10 mM MeCN stock solution in PBS (pH 7.4) at a target concentration of 250 μM. The incubation was carried out under shaking at 25 °C for 1 h followed by centrifugation at 21100 × g for 30 min. The supernatant was analyzed by UPLC/MS for the quantification of the dissolved compound (in μM) by UV at a specific wavelength (215 nm). […] The UPLC/MS analyses were performed on a Waters ACQUITY UPLC/MS system consisting of a single quadrupole detector (SQD) Mass Spectrometer (MS) equipped with an Electrospray Ionization (ESI) interface and a Photodiode Array Detector (PDA). The PDA range was 210–400 nm. ESI in positive mode was used in the mass scan range of 100–650 Da. The analyses were run on an ACQUITY UPLC BEH C18 column (50 × 2.1 mm ID, particle size 1.7 μm) with a VanGuard BEH C18 precolumn (5 × 2.1 mm ID, particle size 1.7 μm), using 10 mM NH4OAc in H2O at pH 5 adjusted with AcOH (A) and 10 mM NH4OAc in MeCN/H2O (95:5) at pH 5 (B) as the mobile phase. Values are reported as mean values of ≥2 experiments performed.

The mark [4] stands for this setting: supplementary csv, read-out: hAC, IC50.
[5] abbreviates: hAC expressed in HEK-293 cells, read-out: hAC IC50 (μM)±SD.

Molecules are shown by their SMILES. In brackets after ≈: the same amount, converted by molar mass. Counter-ions that a name gives are not always drawn. Like-named read-outs stand apart in the source and are kept apart here.

What is called IC50 is the midpoint of a concentration-inhibition curve. For the compound `CC(=O)N1CCc2oc(=O)n(C(=O)NCCCCc3ccccc3)c2C1` [12e, 5-Acetyl-2-oxo-N-(4-phenylbutyl)-6,7-dihydro-4H-oxazolo[4,5-c]pyridine-3-carboxamide], at AC (setting [4]), the IC50 was determined as 0.293 ± 0.107 µM.

Take `O=C(NCCCCc1ccccc1)n1c(=O)oc2cc(C3CCOCC3)ccc21` [22b, 2-Oxo-N-(4-phenylbutyl)-6-tetrahydropyran-4-yl-1,3-benzoxazole-3-carboxamide]: the half-inhibitory concentration (IC50) on AC (setting [5]) amounted to 0.068 ± 0.022 µM. Usually solubility stands for the concentration that dissolves in the medium under given conditions. A lower solubility goes with a poorly soluble substance. As to `CN1CCC(c2cc3oc(=O)n(C(=O)NCCCCc4ccccc4)c3cc2F)CC1` [22p, 5-Fluoro-6-(1-methyl-4-piperidyl)-2-oxo-N-(4-phenylbutyl)-1,3-benzoxazole-3-carboxamide], in series [1] (% remaining at 60 min), the “m-LM [% at 60 min]” value was determined as 70%. Moreover, in series [1] (pH 7.4, read-out: m-LM t1/2), the half-life at 4.6 μM was greater than 60 min. In series [2], the half-life at 2 µM was determined as 20 min. Also, the concentration for half-maximal inhibition (IC50) at AC (setting [5]) is 0.024 ± 0.002 µM. This compound also had a solubility at 1 h in series [3] of 70 µM (≈ 29.8 µg/mL). `CC(C)CN1CCN(c2ccc3c(c2)oc(=O)n3C(=O)NCCCCc2ccccc2)CC1` [23i, 6-(4-Isobutylpiperazin-1-Yl)-2-oxo-N-(4-phenylbutyl)-1,3-benzoxazole-3-carboxamide]: the IC50 on AC (setting [5]) came to 0.127 ± 0.037 µM. As to `CN1CCc2oc(=O)n(C(=O)NCCCCc3ccccc3)c2C1` [12c, 5-Methyl-2-oxo-N-(4-phenylbutyl)-6,7-dihydro-4H-oxazolo[4,5-c]pyridine-3-carboxamide Hydrochloride], the IC50 on AC (setting [4]) was found to be 0.516 ± 0.165 µM. Regarding `O=C(NCCCCc1ccccc1)n1c(=O)oc2cc(N3CCOCC3)ccc21` [23b, 6-Morpholino-2-oxo-N-(4-phenylbutyl)-1,3-benzoxazole-3-carboxamide], the 50% inhibitory concentration (IC50) on AC (setting [5]) was determined as 0.192 ± 0.087 µM. Regarding `CN1CCC(c2ccc3[nH]c(=O)oc3c2)CC1` [21g, 6-(1-Methyl-4-piperidyl)-3H-1,3-benzoxazol-2-one], on AC (tested at 1 and 10 μM), the “inhibition of hAC” value is “not able to inhibit hAC”. Consider `O=C(NCCCCc1ccccc1)n1c2c(oc1=O)CCN(Cc1ccccc1)C2` [12d, 5-Benzyl-2-oxo-N-(4-phenylbutyl)-6,7-dihydro-4H-oxazolo[4,5-c]pyridine-3-carboxamide], for which, at AC (setting [4]), the IC50 came to 0.436 ± 0.073 µM. Regarding `O=C(NCCOCc1ccccc1)n1c(=O)oc2cc(-c3ccc(F)cc3)ccc21` [2d, N-(2-Benzyloxyethyl)-6-(4-fluorophenyl)-2-oxo-1,3-benzoxazole-3-carboxamide], at AC (setting [4]), the 50% inhibitory concentration (IC50) came to 4.7 ± 6.04 µM. On to `CCOCCNC(=O)n1c(=O)oc2cc(C3CCN(C)CC3)ccc21` [22l, N-(2-Ethoxyethyl)-6-(1-methyl-4-piperidyl)-2-oxo-1,3-benzoxazole-3-carboxamide], for which the concentration for half-maximal inhibition (IC50) on AC (setting [5]) was 1.05 ± 0.312 µM. In the case of `COCCCNC(=O)n1c(=O)oc2cc(-c3ccc(F)cc3)ccc21` [2g, 6-(4-Fluorophenyl)-N-(3-methoxypropyl)-2-oxo-1,3-benzoxazole-3-carboxamide], on AC (setting [4]), the half-maximal inhibitory concentration (IC50) is 2.6 ± 0.176 µM. As to `CCCCCNC(=O)n1c(=O)oc2cc(-c3ccc(F)cc3)ccc21` [2e, 6-(4-Fluorophenyl)-2-oxo-N-pentyl-1,3-benzoxazole-3-carboxamide], the half-inhibitory concentration (IC50) on AC (read-out: hAC IC50) worked out at 0.06 µM. The solubility at 1 h in series [3] is less than 1 µM.

For the compound `O=C1C(=O)N(C(=O)NCCCCc2ccccc2)c2ccccc21` [8c, 2,3-Dioxo-N-(4-phenylbutyl)indoline-1-carboxamide], the 50% inhibitory concentration (IC50) at AC (setting [5]) was greater than 10 µM. On to `CCOCCNC(=O)n1c(=O)oc2cc(-c3ccc(F)cc3)ccc21` [2f, N-(2-Ethoxyethyl)-6-(4-fluorophenyl)-2-oxo-1,3-benzoxazole-3-carboxamide], for which the concentration for half-maximal inhibition (IC50) on AC (setting [4]) is 2.3 µM. Consider `O=C(NCCCCc1ccccc1)n1c(=O)oc2cc(N3CCS(=O)(=O)CC3)ccc21` [23c, 6-(1,1-Dioxo-1,4-thiazinan-4-yl)-2-oxo-N-(4-phenylbutyl)-1,3-benzoxazole-3-carboxamide], for which the IC50 at AC (setting [5]) was determined as 0.16 ± 0.014 µM. For the compound `CCC(C)NC(=O)n1c(=O)oc2cc(C3CCN(C)CC3)ccc21` (stereo not shown) [22n, 6-(1-Methyl-4-piperidyl)-2-oxo-N-sec-butyl-1,3-benzoxazole-3-carboxamide], the IC50 at AC (setting [5]) is 2.1 µM. In the case of `O=C(NCCCCc1ccccc1)n1c(=O)oc2cc(N3CCCCC3)ccc21` [23a, 2-Oxo-N-(4-phenylbutyl)-6-piperidin-1-ium-1-yl-1,3-benzoxazole-3-carboxamide Hydrochloride], on AC (setting [5]), the concentration for half-maximal inhibition (IC50) stood at 0.08 ± 0.017 µM. For `O=C1Cc2ccccc2N1C(=O)NCCCCc1ccccc1` [8d, 2-Oxo-N-(4-phenylbutyl)indoline-1-carboxamide], the IC50 on AC (setting [5]) is greater than 10 µM.

`CC(C)N1CCN(c2ccc3c(c2)oc(=O)n3C(=O)NCCCCc2ccccc2)CC1` [23h, 6-(4-Isopropylpiperazin-1-yl)-2-oxo-N-(4-phenylbutyl)-1,3-benzoxazole-3-carboxamide]: on AC (setting [5]), the IC50 is 0.211 ± 0.065 µM. In the case of `O=C(NCCCCc1ccccc1)n1c(=O)oc2cc(C3CCCCC3)ccc21` [22a, 6-Cyclohexyl-2-oxo-N-(4-phenylbutyl)-1,3-benzoxazole-3-carboxamide], the half-maximal inhibitory concentration (IC50) on AC (setting [5]) amounted to 0.089 ± 0.054 µM.
